Like-named read-outs stand apart in the source and are kept apart here.
Legend:
[1] = Concentration of (poly)phenolic metabolites in fasting urine at baseline, 24 h after single MP beverage and 15th day after 14-day MP intake (UHPLC-QQQ-MS); conditions: for concentration at 15 day / concentration at 0 h / concentration at 24 h: human, urine, oral; for concentration at 0 h / concentration at 24 h: 500 g
Excerpt: The acute trial was a randomized, 3 arm, within-subject crossover study design (Figure 5A). The trial initiated with 3 days of food record collection to assess background (pre-study) dietary intake followed by counseling to adhere to a diet devoid of mango or its parts and relatively low in polyphenol-rich beverages/foods, which was maintained throughout the duration of the trial. […] In general, subjects were encouraged to follow their “usual” diet with the exception of foods/beverages that may interfere with the outcomes of the study. Food intake diaries and, phone call and email reminders helped subjects maintain compliance throughout the study period. After an initial 7-day run-in period on the limited polyphenol diet, subjects were assigned to a randomization sequence providing 1 of 3 study test beverages (recipes provided in Appendix A, Table A3) on three separate days in a random order: MP (500 g), MP (500 g) + VC (100 mg) or VC (100 mg) beverages. On each study day subjects arrived fasted and well hydrated. After standard admission procedures were completed (e.g., review of compliance with dietary requirements for 3 days prior to study day, dinner meal intake, usual sleep patterns), a catheter was placed by a registered nurse in subjects’ non-dominant arm and a fasting/baseline blood sample was collected (0 h). Subjects were provided with a standard breakfast meal 2 h after the study beverages. The breakfast meal was comprised of a buttermilk biscuit with butter and jelly, and scrambled egg white with shredded white cheddar cheese. After the 6 h blood collection, subjects ate a low polyphenol lunch consisting of dry roasted peanuts and fresh peeled cucumber with ranch dressing (Appendix A, Table A3).
Spot urine samples were collected in urine collection cups, immediately placed on ice and then aliquoted into individual cryovials. All the samples were stored at −80 °C until analysis.
A 14-day feeding trial was conducted with the MP only to study the effect of repetitive intake of MP on (poly)phenolic metabolite profiles. Upon completion of the acute trial, subjects were instructed to continue on the low polyphenolic diet for 2 weeks while consuming MP beverages (provided by CNRC) daily in the morning (250 g MP + 50 g water) and evening (250 g MP + 50 g water). On day 14, subjects consumed both beverages (500 g of MP in total) in the morning and reported to the CNRC on the 15th day after an overnight fast to provide a fasting blood and urine sample (Figure 5B). Blood and urine samples were collected as described above and stored at −80 °C until analysis.
The supernatant was collected and filtered through 0.2 µm polypropylene syringe filter before HPLC analysis.
The ESI conditions were the same as those used in the UHPLC-Q-TOF analysis. The quantification of the compounds was conducted by multiple-reaction monitoring (MRM) transitions. Spectra were recorded in both positive- and negative-ion mode with capillary voltage of 4500 V and drying gas flow rate of 9 L/min at 200 °C. The sheath gas temperature and flow rate were 300 °C and 11 L/min, respectively. Standards were optimized for collision energies, fragmentor voltages and MRM transitions using Mass Hunter Optimizer. The MRM transition for metabolites were created based on the results from UHPLC-Q-TOF-MS. Standards for plasma analysis were prepared in blank plasma (charcoal-stripped human plasma obtained from Bioreclamation IVT) for matrix match and for urine analysis were prepared in SMP.
The flow rate was maintained at 0.4 mL/min and the injection volume was 5 μL. The mobile phase consisted of acidified water (0.1% formic acid) (A) and acidified acetonitrile (0.1% formic acid) (B). The gradient for the separation of compounds was as follows: 5 to 5% B from 0 to 1 min; 10% B at 3 min; 15% B at 7 min; 15% B at 9 min; 20% B at 10 min; 20% B at 11 min; 25% B at 12 min; 30% B at 13 min; 30% B at 14 min; 95% B at 15 min; and back to 5% B at 16 min.

clinical = format: in vivo, human; design: AUC0–24h: concentration or dose not given beside the values
Experimental: SPE procedure was conducted to extract and concentrate the (poly)phenolic compounds and their metabolites from the plasma samples. Briefly, plasma samples were thawed on ice and 500 µL plasma was diluted with 1.5 mL of 0.1% formic acid in water with addition of internal standards (2-methylhippuric acid (2 ng/mL), phloridizin (1 ng/mL)) before being loaded on preconditioned SPE cartridges. The cartridges were washed with 0.1% formic acid in water (1 mL) after loading with plasma samples. The elution of the compounds was achieved by 0.1% formic acid in methanol (1 mL) and the eluent was dried under nitrogen gas at room temperature. […] Supernatant was collected in amber HPLC vials before analysis.
The absorption and elimination of 11 major mango metabolites over 24 h was determined after MP, MP + VC, and VC intake. The plasma concentration/area at each time point was determined by the mean of 13 subjects. The time vs. concentration curves and the time vs. area curves were created using GraphPad Prism (version 8.2.1). […] Tmax is the time (h) when Cmax was achieved. Wilcoxon signed-rank test was used for Tmax analysis due to non-normal distribution. Area under the plasma concentration time curve (AUC0−24h, nmol·h/L) was calculated by the linear trapezoidal method using Microsoft Excel 2013, version 15 [63]. […]

[2] = human plasma, 0−24 h, after VC (vitamin C 100 mg) beverage, mean ± standard error, read-out: Cmax
[3] = human plasma, after VC beverage, mean ± standard error
[4] = human plasma, after MP + VC beverage, mean ± standard error

SMILES: O=C(O)c1cccc(O)c1O [2,3-Dihydroxybenzoic acid]
- concentration at 15 day [1]: 0.3 ± 0.1 µM
- concentration at 0 h [1]: 0.3 ± 0.1 µM
- concentration at 24 h [1]: 0.2 ± 0.1 µM

SMILES: O=C(O)c1cc(O)ccc1O [2,5-Dihydroxybenzoic acid]
- concentration at 15 day [1]: 7.9 ± 2.7 µM
- concentration at 0 h [1]: 6.7 ± 1.6 µM
- concentration at 24 h [1]: 4.9 ± 1 µM

SMILES: O=C(O)c1ccc(O)c(O)c1 [3,4-Dihydroxybenzoic acid]
- concentration at 15 day [1]: 0.8 ± 0.2 µM
- concentration at 0 h [1]: 2.4 ± 0.7 µM
- concentration at 24 h [1]: 1.1 ± 0.3 µM

SMILES: O=C(O)Cc1ccc(O)c(O)c1 [3,4-Dihydroxyphenylacetic acid]
- concentration at 15 day [1]: 3.8 ± 0.4 µM
- concentration at 0 h [1]: 8 ± 1.6 µM
- concentration at 24 h [1]: 4.5 ± 0.8 µM

SMILES: O=C(O)CCc1cccc(O)c1 [3-Hydroxyphenylpropanoic acid]
- Concentration in fasting urine, Mean ± std Error, 0 h (Fasting) ([1]; in vivo): 3.1 ± 0.8 µM
- Concentration in fasting urine, Mean ± std Error, 15 Days (Fasting) ([1]; in vivo): 4.4 ± 1.9 µM
- Concentration in fasting urine, Mean ± std Error, 24 h (Fasting) ([1]; in vivo): 2.0 ± 0.3 µM

SMILES: O=C(O)c1ccc(O)cc1 [4-Hydroxybenzoic acid]
- concentration at 15 day [1]: 5.4 ± 0.8 µM
- concentration at 0 h [1]: 6.1 ± 1 µM
- concentration at 24 h [1]: 5.9 ± 0.9 µM

SMILES: O=C(O)Cc1ccc(O)cc1 [4-Hydroxyphenylacetic acid]
- Concentration in fasting urine, Mean ± std Error, 0 h (Fasting) ([1]; in vivo): 4.2 ± 1.3 µM
- Concentration in fasting urine, Mean ± std Error, 15 Days (Fasting) ([1]; in vivo): 3.0 ± 0.9 µM
- Concentration in fasting urine, Mean ± std Error, 24 h (Fasting) ([1]; in vivo): 2.6 ± 0.6 µM

SMILES: Cc1ccc(C(=O)NCC(=O)O)cc1 [4-Methylhippuric acid]
- Concentration in fasting urine, Mean ± std Error, 0 h (Fasting) ([1]; in vivo): 2.0 ± 1.0 µM
- Concentration in fasting urine, Mean ± std Error, 15 Days (Fasting) ([1]; in vivo): 1.2 ± 0.4 µM
- Concentration in fasting urine, Mean ± std Error, 24 h (Fasting) ([1]; in vivo): 1.5 ± 0.9 µM

SMILES: O=C(O)/C=C/c1ccc(O)c(O)c1 [Caffeic acid]
- Concentration in fasting urine, Mean ± std Error, 24 h (Fasting) ([1]; human fasting urine, 24 h after single-time MP beverage intake): Not detected
- concentration at 15 day [1]: 0.1 µM
- concentration at 0 h [1]: 0.1 µM

SMILES: Oc1ccccc1O [Catechol]
- concentration at 15 day [1]: 15.1 ± 4 µM
- concentration at 0 h [1]: 18.7 ± 12.2 µM
- concentration at 24 h [1]: 15.7 ± 4.1 µM

SMILES: O=Cc1ccc(O)cc1 [Compound 4-Hydroxybenzaldehyde]
- concentration at 15 day [1]: 0.2 µM
- concentration at 0 h [1]: 0.2 ± 0.1 µM
- concentration at 24 h [1]: 0.2 µM

SMILES: O=C(O[C@@H]1O[C@H](CO)[C@@H](O)[C@H](O)[C@H]1O)c1cc(O)c(O)c(O)c1 [Compound C2]
- Cmax (clinical; human, in vivo): 0.0134 ± 0.0019 µM
- Tmax (clinical; human, in vivo): 2.4 ± 0.3 h
- Cmax (clinical; human, in vivo, 100 mg): 0.0021 ± 0.0003 µM
- difference in plasma concentrations/areas after MP + VC beverage compared to MP beverage alone (clinical; in vivo): not statistically significant
- time within which absorbed (clinical; in vivo): 1 to 2 h

SMILES: O=S(=O)(O)Oc1cccc(O)c1O [Compound C8]
- Cmax (clinical; [2]): 2.56 ± 0.894 µM
- AUC0–24h (clinical; [3]): 5504.9 ± 1763.4 nM·h
- AUC0–24h (clinical; human, in vivo): 18852.1 ± 3491.6 nM·h
- Cmax (clinical; human, in vivo): 10 ± 1.78 µM
- Tmax (clinical; human, in vivo): 7.3 ± 0.6 h

SMILES: O=C(O)[C@H]1O[C@@H](Oc2ccccc2O)[C@H](O)[C@@H](O)[C@@H]1O [Compound C10, catechol glucuronide]
- Cmax (clinical; human plasma, 0−24 h, after MP (mango pulp 500 g) beverage, mean ± standard error, n = 13, read-out: Cmax): 0.472 ± 0.27 µM
- Cmax (clinical; human plasma, 0−24 h, after MP + VC (mango pulp 500 g + vitamin C 100 mg) beverage, mean ± standard error, read-out: Cmax): 0.186 ± 0.0458 µM
- Cmax (clinical; [2]): 0.0106 ± 0.0032 µM
- AUC0–24h (clinical; [4]): 483.3 ± 108.0 nM·h
- Tmax (clinical; [4]): 8.3 ± 0.4 h
- AUC0–24h (clinical; human plasma, after MP beverage, linear trapezoidal method, mean ± standard error): 1830.9 ± 1391.0 nM·h
- Tmax (clinical; human plasma, after MP beverage, mean ± standard error): 8.0 ± 0.6 h
- AUC0–24h (clinical; [3]): 44.8 ± 5.1 nM·h
